Where “and” joins values, the source holds several entries; their conditions need not be identical. Identical values can stand only once.
Test: molar heat capacity at constant pressure
Settings: 101.33 kPa, Small sample (50 mg) DSC

O=P([O-])([O-])[O-].[Co+2].[Cs+] [cesium cobalt(II) phosphate]
Settings	molar heat capacity at constant pressure
451.9 K, Crystal 3	167.95 J/K/mol
454.4 K, Crystal 3	167.95 J/K/mol
456.9 K, Crystal 3	168.78 J/K/mol
459.4 K, Crystal 3	169.62 J/K/mol
460 K, Crystal 3	169.45 J/K/mol
461.9 K, Crystal 3	170.45 J/K/mol
464.4 K, Crystal 3	170.45 J/K/mol
466.9 K, Crystal 3	171.28 J/K/mol
469.4 K, Crystal 3	172.11 J/K/mol
470 K, Crystal 3	172.44 J/K/mol
471.9 K, Crystal 3	172.94 J/K/mol
474.4 K, Crystal 3	173.77 J/K/mol
476.9 K, Crystal 3	174.6 J/K/mol
479.4 K, Crystal 3	176.27 J/K/mol
480 K, Crystal 3	175.02 J/K/mol
481.9 K, Crystal 3	182.92 J/K/mol
484.4 K, Crystal 3	205.37 J/K/mol
486.9 K, Crystal 2	241.12 J/K/mol and 177.1 J/K/mol
486.9 K, Crystal 3	177.1 J/K/mol and 241.12 J/K/mol
489.8 K, Crystal 2	196.22 J/K/mol
490 K, Crystal 2	176.68 J/K/mol
491.9 K, Crystal 2	182.09 J/K/mol
494.4 K, Crystal 2	177.93 J/K/mol
496.9 K, Crystal 2	177.1 J/K/mol
499.4 K, Crystal 2	177.93 J/K/mol
500 K, Crystal 2	177.51 J/K/mol
501.9 K, Crystal 2	178.76 J/K/mol
504.4 K, Crystal 2	181.26 J/K/mol
506.9 K, Crystal 2	185.41 J/K/mol
509.4 K, Crystal 2	192.06 J/K/mol
510 K, Crystal 2	177.51 J/K/mol
511.6 K, Crystal 2	215.34 J/K/mol
514.4 K, Crystal 1	253.59 J/K/mol and 177.02 J/K/mol
514.4 K, Crystal 2	253.59 J/K/mol and 177.76 J/K/mol
517.3 K, Crystal 1	198.72 J/K/mol
518.6 K, Crystal 1	188.74 J/K/mol
520 K, Crystal 1	177.02 J/K/mol
520.2 K, Crystal 1	184.58 J/K/mol
523.1 K, Crystal 1	181.26 J/K/mol
526.9 K, Crystal 1	178.76 J/K/mol
529.4 K, Crystal 1	177.93 J/K/mol
530 K, Crystal 1	177.02 J/K/mol
531.9 K, Crystal 1	177.1 J/K/mol
534.4 K, Crystal 1	177.1 J/K/mol
536.9 K, Crystal 1	177.1 J/K/mol
539.4 K, Crystal 1	177.1 J/K/mol
540 K, Crystal 1	177.02 J/K/mol
541.9 K, Crystal 1	177.1 J/K/mol
544.4 K, Crystal 1	177.1 J/K/mol
546.9 K, Crystal 1	177.1 J/K/mol
549.4 K, Crystal 1	177.1 J/K/mol
550 K, Crystal 1	177.02 J/K/mol
551.9 K, Crystal 1	177.1 J/K/mol
554.4 K, Crystal 1	177.1 J/K/mol
556.9 K, Crystal 1	177.1 J/K/mol
559.4 K, Crystal 1	177.1 J/K/mol
560 K, Crystal 1	177.02 J/K/mol
561.9 K, Crystal 1	177.1 J/K/mol
564.4 K, Crystal 1	177.1 J/K/mol
566.9 K, Crystal 1	177.1 J/K/mol
569.4 K, Crystal 1	177.1 J/K/mol
570 K, Crystal 1	177.02 J/K/mol
571.9 K, Crystal 1	177.1 J/K/mol
574.4 K, Crystal 1	177.1 J/K/mol
576.9 K, Crystal 1	177.1 J/K/mol
579.4 K, Crystal 1	177.1 J/K/mol
580 K, Crystal 1	177.02 J/K/mol
581.9 K, Crystal 1	177.1 J/K/mol
584.4 K, Crystal 1	177.1 J/K/mol
586.9 K, Crystal 1	177.1 J/K/mol
589.4 K, Crystal 1	177.1 J/K/mol
590 K, Crystal 1	177.02 J/K/mol
591.9 K, Crystal 1	177.1 J/K/mol
594.4 K, Crystal 1	177.1 J/K/mol
596.9 K, Crystal 1	177.1 J/K/mol
599.4 K, Crystal 1	177.1 J/K/mol
600 K, Crystal 1	177.02 J/K/mol
601.9 K, Crystal 1	177.1 J/K/mol
604.4 K, Crystal 1	177.1 J/K/mol
606.9 K, Crystal 1	177.1 J/K/mol
609.4 K, Crystal 1	177.1 J/K/mol
610 K, Crystal 1	177.02 J/K/mol
611.9 K, Crystal 1	177.93 J/K/mol
614.4 K, Crystal 1	177.93 J/K/mol
616.9 K, Crystal 1	177.93 J/K/mol
619.4 K, Crystal 1	177.93 J/K/mol
620 K, Crystal 1	177.02 J/K/mol
621.9 K, Crystal 1	177.93 J/K/mol
624.4 K, Crystal 1	177.93 J/K/mol
626.9 K, Crystal 1	177.93 J/K/mol
629.4 K, Crystal 1	177.93 J/K/mol
630 K, Crystal 1	177.02 J/K/mol
631.9 K, Crystal 1	177.93 J/K/mol
634.4 K, Crystal 1	177.93 J/K/mol
636.9 K, Crystal 1	177.93 J/K/mol
639.4 K, Crystal 1	177.93 J/K/mol
640 K, Crystal 1	177.02 J/K/mol
641.9 K, Crystal 1	177.93 J/K/mol
644.4 K, Crystal 1	177.93 J/K/mol
646.9 K, Crystal 1	177.93 J/K/mol
649.4 K, Crystal 1	177.93 J/K/mol
650 K, Crystal 1	177.02 J/K/mol
